Experimental data taken from US10774053B2, “HIV protease inhibitors” (Gilead Sciences, Inc., priority 2017, dated 2020).

Key:
[1] = Liver microsomal stability, human liver microsomes; details: human, liver microsomes
Procedure: Liver Microsomal Stability Protocol
Test compounds and one control compound (verapamil) were tested in 3 different species in duplicate sets.
Test compound concentration: 1 uM; Protein concentration: 0.5 mg/mL (for dog, rat, and human liver microsomes); Cofactor: NADPH-Regenerating system (NRS) solution; Time-points: 2, 12, 25, 45, and 65 minutes.
Reaction Composition (in Each Incubation Well) Contains:
At an incubation temperature of 37° C., the reaction was started with addition of NADPH Regeneration System, at each time point, 25 uL of the reaction mixture was removed and added to a plate with 225 uL quenching solution (50% MeOH, 25% ACN, 25% H2O, and 200 nM labetalol as internal standard). After plates were vortexed, they were centrifuged for 30 minutes to remove proteins. About 100 μL supernatant was removed to a new plate and diluted with 150 μL water. About 20 μL of the mixture was injected into LC/MS/MS system to monitor the compound's response. In vitro measured t1/2 was used to calculate Clint values.

[2] = test system: HIV-1 (IIIB) in MT-4 cells; assay: microbe, parasite or virus in culture; type: cell-based; details: Human immunodeficiency virus 1, IIIB, MT4, MT-4 cells, HIV-1; read-out: MT4 EC50

| half-life at 1 uM [1] | SMILES | EC50 [2] |
| --- | --- | --- |
| ≥ 395 min | CC(C)(C)C[C@]1(c2ccc3nc(C#Cc4ccccc4)ccc3c2)NC(=N)N([C@H](COC(=O)NC2(C(F)(F)F)CC2)c2ccc(Cl)c(-n3ncnc3C(F)F)c2)C1=O (stereo in doubt) [Compound 360] | 79.9 nM |
| ≥ 395 min | CC(C)(C)C[C@]1(c2ccc(-c3cnn(C(F)F)c3)cc2)NC(=N)N([C@H](COC(=O)NC2CC2)c2ccc(Cl)c(-c3nccc(=O)[nH]3)c2)[C@H]1O [Compound 17] | 556 nM |
| ≥ 395 min | CC(C)(C)C[C@]1(c2ccc(-c3cnn(C(F)F)c3)cc2)NC(=N)N([C@H](COC(=O)NC2(C(F)(F)F)CC2)c2ccc(Cl)c(-c3ccccn3)c2)C1=O [Compound 20] | 76.7 nM |
| ≥ 395 min | [H]/N=C1\N[C@](CC(C)(C)C)(c2ccc(-c3cnn(C(F)F)c3)cc2)C(=O)N1[C@H](COC(=O)NC1CC1)c1ccc(Cl)c(-c2ncn(C(F)F)n2)c1 [Compound 34] | 38.7 nM |
| ≥ 395 min | CC(C)(C)C[C@]1(c2ccc(-c3cnn(C(F)F)c3)cc2)NC(=N)N([C@H](COC(=O)NC2(C(F)(F)F)CC2)c2ccc(Cl)c(-c3nnn[nH]3)c2)C1=O [Compound 72] | 5710 nM |
| ≥ 395 min | CC(C)(C)C[C@]1(c2ccc(-c3cnn(C(F)F)c3)cc2)NC(=N)N([C@H](COC(=O)NC(C)(C)C(F)F)c2ccc(Cl)c(-c3ncn[nH]3)c2)C1=O [Compound 78] | 74.9 nM |
| ≥ 395 min | CC(C)(C)C[C@]1(c2ccc(-c3cnn(C(F)F)c3)cc2)NC(=N)N([C@H](COC(=O)NC(C)(C)C(F)F)c2ccc(Cl)c(-c3nccn3C(F)F)c2)C1=O [Compound 89] | 34.4 nM |
| – | C[C@@H](NC(=O)OC[C@H](c1ccc(Cl)c(-n2ncnc2C(F)F)c1)N1C(=N)N[C@](CC(C)(C)C)(c2ccc(-c3cnn(C(F)F)c3)cc2)C1=O)C(F)F [Compound 343] | 17 nM |
| – | CC(C)(C)C[C@]1(c2ccc3nc(C4CC4)ccc3c2)NC(=N)N([C@H](COC(=O)NC2(C(F)(F)F)CC2)c2ccc(Cl)c(-n3ncnc3C(F)F)c2)C1=O [Compound 353] | 8.59 nM |
| – | CC(C)(C)C[C@]1(c2ccc3nc(C(F)F)ccc3c2)NC(=N)N([C@H](COC(=O)NC2(C(F)(F)F)CC2)c2ccc(Cl)c(-n3ncnc3C(F)F)c2)C1=O [Compound 354] | 5.06 nM |
| – | CC(C)(C)C[C@]1(c2ccc(-n3cnnn3)c(F)c2)NC(=N)N([C@H](COC(=O)NC2(C(F)(F)F)CC2)c2ccc(Cl)c(-n3ncnc3C(F)F)c2)C1=O [Compound 355] | 24.6 nM |
| – | CC(C)(C)C[C@]1(c2ccc(-c3nnn(C4CC4)n3)cc2)NC(=N)N([C@H](COC(=O)NC2(C(F)(F)F)CC2)c2ccc(Cl)c(-n3ncnc3C(F)F)c2)C1=O [Compound 356] | 19.5 nM |
| – | Cn1nnc(-c2ccc([C@@]3(CC(C)(C)C)NC(=N)N([C@H](COC(=O)NC4(C(F)(F)F)CC4)c4ccc(Cl)c(-n5ncnc5C(F)F)c4)C3=O)cc2)n1 [Compound 357] | 10.6 nM |
| – | Cn1nnnc1-c1ccc([C@@]2(CC(C)(C)C)NC(=N)N([C@H](COC(=O)NC3(C(F)(F)F)CC3)c3ccc(Cl)c(-n4ncnc4C(F)F)c3)C2=O)cc1 [Compound 358] | 76.2 nM |
| – | CC(C)(CC#N)C[C@]1(c2ccc(-c3cnn(C4CC4)c3)cc2)NC(=N)N([C@H](COC(=O)NC2(C(F)(F)F)CC2)c2ccc(Cl)c(-n3ncnc3C(F)F)c2)C1=O [Compound 362] | 36.4 nM |
| – | CC(C)(C)C[C@]1(c2ccc(-c3cn(C4(C(F)(F)F)CC4)nn3)cc2)NC(=N)N([C@H](COC(=O)NC2(C(F)(F)F)CC2)c2ccc(Cl)c(-n3ncnc3C(F)F)c2)C1=O [Compound 364] | 21.6 nM |
| – | CC(C)(C)C[C@]1(c2ccc(-c3cnn(C(F)F)c3)cc2)NC(=N)N([C@H](COc2ccc(F)cc2F)c2ccc(Cl)c(-n3ncnc3C(F)F)c2)C1=O [Compound 365] | 143 nM |

| half-life at 1 uM [1] | SMILES | EC50 [2] |
| --- | --- | --- |
| – | C[C@H](NC(=O)OC[C@H](c1ccc(Cl)c(-n2ncnc2C(F)F)c1)N1C(=N)N[C@](CC(C)(C)C)(c2ccn3nccc3c2)C1=O)C(F)(F)F [Compound 367] | 19 nM |
| – | CC(C)n1ncc(-c2ccc([C@@]3(CC(C)(C)C)NC(=N)N([C@H](COC(=O)NC4(C(F)(F)F)CC4)c4ccc(Cl)c(-n5ncnc5C(F)F)c4)C3=O)cc2)n1 [Compound 371] | 26.7 nM |
| – | CC(C)(C)C[C@]1(c2ccc(C(F)(F)F)cc2)NC(=N)N([C@H](COC(=O)NC2(C(F)(F)F)CC2)c2ccc(Cl)c(-n3ncnc3C(F)F)c2)C1=O [Compound 373] | 49.7 nM |
| – | CC(C)(C)C[C@]1(c2ccc(-c3cnn(C(F)F)c3)cc2)NC(=N)N([C@H](COC(=O)NC2(C)CC2)c2cccc(-n3ncnc3C(F)F)c2)C1=O [Compound 375] | 30.8 nM |
| – | CC(C)(C)C[C@]1(c2ccc(-c3cnn(C(F)F)c3)cc2)NC(=N)N([C@H](COC(=O)N(CC(F)F)C2CC2)c2ccc(Cl)c(-n3cncn3)c2)C1=O [Compound 376] | 12 nM |
| – | CC(C)(C)C[C@]1(c2ccc(C#CC(C)(C)S(C)(=O)=O)cc2)NC(=N)N([C@H](COC(=O)NC(C)(C)C(F)F)c2ccc(Cl)c(-n3cncn3)c2)C1=O [Compound 377] | 90.7 nM |
| – | CC(C)(C)C[C@]1(c2ccc(-c3ncon3)cc2)NC(=N)N([C@H](COC(=O)NC2(C(F)(F)F)CC2)c2ccc(Cl)c(-n3cncn3)c2)C1=O [Compound 378] | 35.6 nM |
| – | CC(C)(C)C[C@]1(c2ccc(-c3cnn(C4CC4)n3)cc2)NC(=N)N([C@H](CNC(=O)C2CC2)c2ccc(Cl)c(-n3ncnc3C(F)F)c2)C1=O [Compound 381] | 24.8 nM |
| – | CC(C)(C)C[C@]1(c2ccc(-c3cnn(C4CC4)n3)cc2)NC(=N)N([C@H](CNC(=O)C2(C)CC2)c2ccc(Cl)c(-n3ncnc3C(F)F)c2)C1=O [Compound 382] | 36.5 nM |
| – | CC(C)(C)C[C@]1(c2ccc(-c3cnn(C4CC4)n3)cc2)NC(=N)N([C@H](CNC(=O)CC(F)(F)F)c2ccc(Cl)c(-n3ncnc3C(F)F)c2)C1=O [Compound 383] | 9.7 nM |
| – | CC(C)(C)C[C@]1(c2ccc(-c3cnn(C4CC4)n3)cc2)NC(=N)N([C@H](CNC(=O)CC2CC2)c2ccc(Cl)c(-n3ncnc3C(F)F)c2)C1=O [Compound 384] | 18 nM |
| – | C[C@H](C(=O)NC[C@H](c1ccc(Cl)c(-n2ncnc2C(F)F)c1)N1C(=N)N[C@](CC(C)(C)C)(c2ccc(-c3cnn(C4CC4)n3)cc2)C1=O)C(F)(F)F [Compound 385] | 12.8 nM |
| – | C[C@@H](C(=O)NC[C@H](c1ccc(Cl)c(-n2ncnc2C(F)F)c1)N1C(=N)N[C@](CC(C)(C)C)(c2ccc(-c3cnn(C4CC4)n3)cc2)C1=O)C(F)(F)F [Compound 386] | 23.4 nM |
| – | CC(C)C(=O)NC[C@H](c1ccc(Cl)c(-n2ncnc2C(F)F)c1)N1C(=N)N[C@](CC(C)(C)C(F)(F)F)(c2ccc(-c3cnn(C4CC4)n3)cc2)C1=O [Compound 388] | 16.9 nM |
| – | C[C@@H](C(=O)NC[C@H](c1ccc(Cl)c(-n2ncnc2C(F)F)c1)N1C(=N)N[C@](CC(C)(C)C(F)(F)F)(c2ccc(-c3cnn(C4CC4)n3)cc2)C1=O)C(F)(F)F [Compound 390] | 20.9 nM |
| – | [2H]C([2H])([2H])OC(=O)NC[C@H](c1ccc(Cl)c(-n2ncnc2C(F)F)c1)N1C(=N)N[C@](CC(C)(C)C(F)(F)F)(c2ccc(-c3cnn(C4CC4)n3)cc2)C1=O [Compound 393] | 27 nM |

| SMILES | half-life at 1 uM [1] | EC50 [2] |
| --- | --- | --- |
| CC(C)(C)C[C@]1(c2ccc(-c3cnn(C(F)F)c3)cc2)NC(=N)N([C@H](COC(=O)N[C@@H]2CC2C(F)(F)F)c2ccc(Cl)c(-n3ncnc3C(F)F)c2)C1=O (single isomer, unassigned) [Compound 331] | ≥ 395 min | 16.4 nM |
